Results reported in patent US20070281857A1, “FORMIC ACID AS AN HERBICIDE” (MARRONE ORGANIC INNOVATIONS, priority 2006, published 2007).
Like-named read-outs stand apart in the source and are kept apart here.

Experiments:
[1] = system: radish (Raphanus sativus); conditions: spray
Procedure: (§1) The herbicidal effect of formic acid was compared with that of acetic acid in a greenhouse study using radish (Raphanus sativus) and wheat (Triticum aestivum) as test plants. Both formic acid and acetic acid were diluted in water at 1, 3, and 5%, and deionized water was used as a control. Tween 20 was added to each of the solutions at a rate 0.04% for use as a surfactant. Solutions were applied to plants using a small handheld sprayer. Plants were evaluated at 24- and 72-hours after treatment for the % control.

[2] = system: wheat (Triticum aestivum); conditions: spray
Procedure: as §1

[3] = system: monocotyledonous wheat plants (Triticum aestivum); conditions: foliar spray 5%; one day post-treatment
From the text: (§2) In order to determine whether formic acid could be used as a foliar herbicide it was applied as a foliar spray to the leaves of dicotyledonous radish plants (Raphanus sativas) and monocotyledonous wheat plants (Triticum aestivum). Solutions were applied to plants using a small handheld sprayer.
(§3) Formic acid and acetic acid solutions at three concentrations (1%, 3%, 5%) were applied and water was used as a check. A barrier was inserted between the rows of plants on either side of the row being treated to avoid drift of sprays into neighboring rows. Plants were evaluated at 24-hour and 72-hour intervals for the number of surviving plants and a percentage was derived from this number in comparison with the number of plants originally present in the row.

[4] = system: dicotyledonous radish plants (Raphanus sativas); conditions: one day post-treatment
From the text: as §2, §3

[5] = system: Canada thistle and other perennials; conditions: cited from earlier work
[6] = system: annual weeds tested including foxtail, lambsquarters, and pigweed; conditions: found by the USDA; cited from earlier work

CC(=O)O [Acetic acid]
% control of the dicot weeds (radish) ([1]; 1%): 51% | % control of the dicot weeds (radish) ([1]; 3%): 71% | control of radish plants compared with formic acid (100%) ([1]; 5% dilution): comparable | % control of wheat seedlings ([2]; 5%, 72-h): 28% | % control of wheat seedlings ([2]; lower concentrations (1 and 3%), after 72-h): 5-14% | wheat plants killed [3]: 30% | foliage surviving, radish ([4]; foliar spray 1%): 50% | foliage surviving, radish ([4]; foliar spray 3%): 30% | killing of foliage of radish plants ([4]; foliar spray 5%): killed all foliage | control of perennials [5]: does not control the root system | share of annual weeds tested against which effective [6]: 80%
